Publication PMC7713294, “Multiplicity of carotene patterns derives from competition between phytoene desaturase diversification and biological environments” (Scientific Reports, 2020)

Tests used:
Experiment in all cases: HPLC-UV time course, global Michaelis-Menten fit (COPASI)
Type in all cases: biochemical
[1] = molecular target: T1, I4_Ma (Mycolicibacterium aurum, UniProt Q9K566); details: phytoene liposomes (soy lecithin), FAD, pH 8.0, 30 °C, Kd = kr/kf fitted with bounded rate constants
T1 construct: gene crtI; full length, codon optimized, C-terminal His6, E. coli BL21(DE3), TALON purified with FAD; species only as initials (Ma), read as Mycobacterium aurum

[2] = molecular target: T2, I3_Rc (Rhodobacter capsulatus, UniProt P17054); details: phytoene liposomes (soy lecithin), FAD, pH 8.0, 30 °C, Kd = kr/kf fitted with bounded rate constants
T2 construct: gene crtI; full length, codon optimized, C-terminal His6, E. coli BL21(DE3), TALON purified with FAD; species only as initials

[3] = molecular target: T3, I4_Bt (CrtI from Blakeslea trispora) (Blakeslea trispora, UniProt Q67GI0); details: phytoene liposomes (soy lecithin), FAD, pH 8.0, 30 °C; Kd = kr/kf fitted with bounded rate constants
T3 construct: gene carB; full length, codon optimized, C-terminal His6, E. coli BL21(DE3), TALON purified with FAD
T3 sequence (Q67GI0 1-582): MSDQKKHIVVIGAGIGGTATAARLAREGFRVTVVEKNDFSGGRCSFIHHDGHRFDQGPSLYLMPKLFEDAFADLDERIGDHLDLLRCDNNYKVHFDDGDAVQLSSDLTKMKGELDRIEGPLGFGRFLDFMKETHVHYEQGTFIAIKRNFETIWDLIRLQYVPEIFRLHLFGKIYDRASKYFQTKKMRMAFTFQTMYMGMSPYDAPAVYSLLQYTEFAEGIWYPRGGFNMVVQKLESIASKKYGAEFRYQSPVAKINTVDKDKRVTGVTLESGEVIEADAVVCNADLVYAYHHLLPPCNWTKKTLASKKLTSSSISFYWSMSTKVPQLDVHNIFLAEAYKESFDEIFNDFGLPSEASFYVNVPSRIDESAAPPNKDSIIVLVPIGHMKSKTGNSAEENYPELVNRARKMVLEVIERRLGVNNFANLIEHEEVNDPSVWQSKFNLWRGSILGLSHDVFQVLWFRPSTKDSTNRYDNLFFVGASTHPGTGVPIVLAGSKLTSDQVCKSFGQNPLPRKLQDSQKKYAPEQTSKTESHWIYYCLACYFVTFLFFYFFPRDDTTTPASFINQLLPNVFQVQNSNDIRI

T1 sequence (Q9K566 entry or part of it): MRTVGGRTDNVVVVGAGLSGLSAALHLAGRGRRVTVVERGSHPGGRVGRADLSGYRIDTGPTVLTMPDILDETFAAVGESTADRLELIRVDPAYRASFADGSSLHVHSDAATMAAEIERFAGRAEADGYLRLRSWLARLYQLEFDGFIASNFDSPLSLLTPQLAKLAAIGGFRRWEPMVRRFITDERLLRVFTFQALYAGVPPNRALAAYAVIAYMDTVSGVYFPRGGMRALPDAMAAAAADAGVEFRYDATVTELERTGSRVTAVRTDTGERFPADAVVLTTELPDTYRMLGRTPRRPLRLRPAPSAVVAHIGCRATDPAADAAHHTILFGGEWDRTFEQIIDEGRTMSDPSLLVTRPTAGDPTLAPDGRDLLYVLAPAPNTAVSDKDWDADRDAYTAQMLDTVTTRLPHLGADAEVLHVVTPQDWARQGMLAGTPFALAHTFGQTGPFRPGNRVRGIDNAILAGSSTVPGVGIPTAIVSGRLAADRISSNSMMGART
T2 sequence (P17054 whole entry): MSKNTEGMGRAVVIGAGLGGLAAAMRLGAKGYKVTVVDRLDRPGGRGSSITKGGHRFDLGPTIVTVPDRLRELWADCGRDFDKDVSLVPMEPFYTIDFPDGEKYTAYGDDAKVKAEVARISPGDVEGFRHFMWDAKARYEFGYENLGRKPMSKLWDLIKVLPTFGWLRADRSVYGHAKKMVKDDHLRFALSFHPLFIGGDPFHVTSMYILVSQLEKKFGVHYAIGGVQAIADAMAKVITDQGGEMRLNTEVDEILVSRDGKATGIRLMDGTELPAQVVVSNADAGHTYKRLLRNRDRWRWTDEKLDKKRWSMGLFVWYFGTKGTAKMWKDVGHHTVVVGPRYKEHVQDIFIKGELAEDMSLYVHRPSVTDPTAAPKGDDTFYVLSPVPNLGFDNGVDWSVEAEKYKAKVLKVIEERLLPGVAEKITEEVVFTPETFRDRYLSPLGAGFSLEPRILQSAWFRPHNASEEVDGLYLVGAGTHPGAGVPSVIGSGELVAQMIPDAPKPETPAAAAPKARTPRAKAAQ

SMILES | Kd [1] [nM] | Kd [2] [nM] | Kd [3] [nM] | Kd ([1]; intermediate formed in situ from phytoene) [nM] | Kd ([2]; lycopene production poorly fitted for I3_Rc) [nM]
CC(C)=CCC/C(C)=C/CC/C(C)=C/CC/C(C)=C/C=C\C=C(/C)CC/C=C(\C)CC/C=C(\C)CCC=C(C)C [phytoene] | 13100 | 1100 | 7900 | – | –
CC(C)=CCC/C(C)=C/CC/C(C)=C/C=C/C(C)=C/C=C/C=C(C)/C=C/C=C(\C)CC/C=C(\C)CCC=C(C)C [ζ-carotene] | 2300 | 23000 | 2500 | – | –
CC(C)=CCC/C(C)=C/C=C/C(C)=C/C=C/C(C)=C/C=C/C=C(C)/C=C/C=C(\C)CC/C=C(\C)CCC=C(C)C [neurosporene] | – | – | 1600 | 2100 | 33000
CC(C)=CCC/C(C)=C/CC/C(C)=C/C=C/C(C)=C/C=C/C=C(\C)CC/C=C(\C)CC/C=C(\C)CCC=C(C)C [phytofluene] | 1000 | 1000 | 4700 | – | –
